# Test results: paper PMC8498988, “Scaffold Hybridization Strategy Leads to the Discovery of Dopamine D3 Receptor-Selective or Multitarget Bitopic Ligands Potentially Useful for Central Nervous System Disorders” (ACS Chemical Neuroscience, 2021)
# Columns and labels:
# D3R = D3R (Homo sapiens, UniProt P35462); assay: Radioligand competition binding at human D3R ([3H]N-methylspiperone, HEK293 membranes); parameters: expressed in transfected cells; host or cells: HEK293; conditions: selectivity
# 5-HT2CR = biological target: T1, 5-HT2CR (Homo sapiens, UniProt P28335); assay: 5-HT2C IP-1 formation (HEK-h5HT2C cells); conditions: for % stimul., 5-HT2C IP-1 formation: agonist mode, normalized to the maximal stimulation by serotonin; for functional behavior at 5-HT2CR: in words
# T1 sequence (P28335 33-458): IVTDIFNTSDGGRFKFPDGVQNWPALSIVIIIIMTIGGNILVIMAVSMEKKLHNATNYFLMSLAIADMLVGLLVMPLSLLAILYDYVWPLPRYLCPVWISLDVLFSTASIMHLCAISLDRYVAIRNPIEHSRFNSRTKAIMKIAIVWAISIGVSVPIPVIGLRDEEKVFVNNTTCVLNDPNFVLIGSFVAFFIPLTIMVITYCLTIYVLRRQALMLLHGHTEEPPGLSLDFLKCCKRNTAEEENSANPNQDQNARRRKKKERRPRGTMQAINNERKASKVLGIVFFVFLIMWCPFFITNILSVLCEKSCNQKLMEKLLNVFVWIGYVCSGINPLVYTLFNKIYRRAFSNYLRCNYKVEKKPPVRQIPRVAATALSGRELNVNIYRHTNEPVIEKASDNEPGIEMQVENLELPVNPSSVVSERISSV
# Description: HEK-h5HT2A or HEK-h5HT2C cells are used as the tissue source. The day before the experiment, cells are plated in 24-well plates at a density of 400,000 cells per well using DMEM supplemented with charcoal-stripped FetalClone. Drugs are made up in stimulation buffer supplied in the kit. Medium is removed from the well, test compounds or serotonin or antagonist or buffer is added, and the cells are incubated for 1 h. The cells are lysed for 30 min, and 50 μL of cell lysate is added to the IP-1 plates. After the addition of appropriate antibodies, the plates are incubated for 3 h, washed six times, incubated with the substrate for 20 min, and, after termination of the reaction, the plate is read on a plate reader at 450 nm with a correction at 620 nm.
# Chain of D3R (P35462 whole entry): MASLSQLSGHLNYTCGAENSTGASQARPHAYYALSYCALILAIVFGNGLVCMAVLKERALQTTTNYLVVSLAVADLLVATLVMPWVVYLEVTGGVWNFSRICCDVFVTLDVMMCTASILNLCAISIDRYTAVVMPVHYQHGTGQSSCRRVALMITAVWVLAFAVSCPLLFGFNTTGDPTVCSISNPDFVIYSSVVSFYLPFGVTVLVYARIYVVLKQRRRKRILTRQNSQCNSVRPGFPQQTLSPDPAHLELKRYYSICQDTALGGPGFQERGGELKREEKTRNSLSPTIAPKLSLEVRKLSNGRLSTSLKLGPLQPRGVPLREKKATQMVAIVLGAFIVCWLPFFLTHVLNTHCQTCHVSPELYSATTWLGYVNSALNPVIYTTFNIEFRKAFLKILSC
SMILES,5-HT1A/D3 (D3R; ratio of Ki values 5-HT1AR/D3R),5-HT2A/D3 (D3R; ratio of Ki values 5-HT2AR/D3R),5-HT2C/D3 (D3R; ratio of Ki values 5-HT2CR/D3R),D1/D3 (D3R; ratio of Ki values D1R/D3R),EC50 (5-HT2CR) [nM],"% stimul., 5-HT2C IP-1 formation (5-HT2CR) [%]",functional behavior at 5-HT2CR (5-HT2CR)
"O=C(NCCCCN1CCN(c2cccc(Cl)c2Cl)CC1)C1COCC(c2ccccc2)(c2ccccc2)O1 (stereo not shown) [compound 3, N-(4-(4-(2,3-Dichlorophenyl)piperazin-1-yl)butyl)-6,6-diphenyl-1,4-dioxane-2-carboxamide]",121,108,269,185,,,
"O=C(NCCCCN1CCN(c2cccc(Cl)c2Cl)CC1)C1COC(c2ccccc2)(c2ccccc2)CO1 (stereo not shown) [compound 6, N-(4-(4-(2,3-Dichlorophenyl)piperazin-1-yl)butyl)-5,5-diphenyl-1,4-dioxane-2-carboxamide]",,,,,380 ± 130,33,"D3R and 5-HT2CR partial agonists with high and low potency, respectively"
"O=C(NCCCCN1CCN(c2cccc(Cl)c2Cl)CC1)C1COc2ccccc2O1 (stereo not shown) [compound 9, N-(4-(4-(2,3-Dichlorophenyl)piperazin-1-yl)butyl)-2,3-dihydrobenzo[b][1,4]dioxine-2-carboxamide]",,,,,750 ± 280,37,"D3R and 5-HT2CR partial agonists with high and low potency, respectively"
